The subject of assay [1] is Ewing sarcoma cell lines (TC-32, 5838, RD-ES, TC-71, A-673, ES-2, ES-7, ES-8). The assay can be described thus: Median GI50 in panel of Ewing sarcoma cell lines. The note with it: for Ratio of Median GI50 non-Ewing sarcoma:Ewing sarcoma (Selectivity Index): median GI50 non-Ewing panel over Ewing panel; for GI50: read-out: Median GI50 in Ewing sarcoma cell lines, median over 8 Ewing sarcoma cell lines, 72 h; for Selectivity Index ratio Analogues:MTM (1): selectivity index relative to MTM (1).

For assay [2], the system named is TC-32 (Ewing sarcoma, EWS-FLI1 Type 1) cell line. As to conditions: for TC-32 Ewing sarcoma EWS-FLI1 Type 1 GI50: 72 h growth inhibition, TC-32 cells; for GI50 ratio PC-3:TC-32: selectivity, GI50 in PC-3 over GI50 in TC-32.
The test system of a further assay is NR0B1 mRNA. The assay can be described thus: Relative mRNA expression (qRT-PCR) of NR0B1 in TC-32 cells. It is filed as cell-based. As to conditions: 6 and 12 h treatments at GI50. The protocol:
TC-32 cells were seeded in 6-well plates at a density of 300,000 cells/well. […] After 6 and 12 h treatments media was removed. Cells were washed with DPBS and 500 μL of 0.05% Trypsin with 0.53 mM EDTA (Corning, Corning, N.Y.) was added. After a 2-3 min incubation, cells detached from the plate and 1 mL of fresh RPMI media was immediately added. Cells were collected in 1.5 mL tubes on ice and centrifuged to a pellet at 1200× g for 5 min. Supernatant was removed and cell pellets were lysed with 600 μL of RLT lysis buffer (Qiagen, Hilden, Germany). Lysates were centrifuged through QIAshredder inserts for complete cell disruption (Qiagen, Hilden, Germany). RNeasy mini spin columns were used to isolate pure RNA (Qiagen, Hilden, Germany). RNA concentrations were measured using NanoDrop 2000 Spectrometer (Thermo Fisher Scientific, Waltham, Mass.) and a 100 ng/μL stock solution was prepared. RNA (1 μg) was used to prepare cDNA with a MultiScribe reverse transcriptase (Thermo Fisher Scientific, Waltham, Mass.). qRT-PCR reactions were conducted using Maxima SYBR green Taq DNA Polymerase (Thermo Fisher Scientific, Waltham, Mass.). EpMotion5070 (Eppendorf, Hamburg, Germany) robot was used to mix reactions in 384 well plates and thermocycling was completed on a QuantStudio 7 Flex (Thermo Fisher Scientific, Waltham, Mass.). […]
A general note: Quantitative PCR measures a nucleic acid by following its amplification.

The test system of the next assay is PANC-1 cells. The assay can be described thus: 72 h GI50 assay in PANC-1. The note with it: read-out: PANC-1 GI50; 72 h growth inhibition.
The test system of a further assay is HeLa cells. The assay can be described thus: 72 h GI50 assay in HeLa. The note with it: read-out: HeLa GI50; 72 h growth inhibition.
In a further assay the test system is CMV promoter. The assay is described as follows: CMV promoter luciferase reporter assay in stably transfected TC-32 cells (non-specific control). The format is cell-based. As to conditions: 12 h, treated up to 10 μM. The source says:
Full-length NR0B1 promoter sequence was PCR amplified using Q5 high-fidelity DNA polymerase (New England Biolabs, Ipswich, Mass.) from genomic DNA of TC-32 cells and cloned into the pGLUC-Basic 2 vector (New England Biolabs, Ipswich, Mass.). XhoI and KpnI restriction sites were incorporated into the primers. After restriction enzyme (New England Biolabs, Ipswich, Mass.) digest and purification by gel electrophoresis, the target amplicon was ligated into the pGLUC-Basic 2 vector using T4 DNA ligase (Thermo Fisher Scientific, Waltham, Mass.). Chemically competent TOP10 E. coli cells were used to propagate vectors under ampicillin selection (100 μg/mL) (Thermo Fisher Scientific, Waltham, Mass.). The resulting vectors were extracted and purified using GeneJET plasmid prep kit (Thermo Fisher Scientific, Waltham, Mass.). The purified vector was transfected into TC-32 cells using lipofectamine 3000 (Thermo Fisher Scientific, Waltham, Mass.) with subsequent G418 selection (1 mg/mL) (VWR, Radnor, Pa.). Separately, TC-32 cells were transfected with pCMV-Red Firefly Vector (Thermo Fisher Scientific, Waltham, Mass.) with subsequent puromycin selection (0.1 mg/mL) (Sigma, St. Louis, Mo.) as a control.
Selected TC-32 cells, expressing either NR0B1 or CMV luciferase reporter vectors, were seeded in clear 96-well plates at a density of 10,000 cells/well. […] After a 12 h treatment, media was removed and cells were washed 3 times with DPBS (Thermo Fisher Scientific, Waltham, Mass.). Cells were directly lysed on a plate shaker for 30 min at room temperature using 100 μL of passive membrane lysis solution. Lysates (80 μL) were transferred to a white luminescence plate. Luciferase substrate, either coelenterazine or D-luciferin (50 μL of 1× solution), for NR0B1 or CMV vectors, respectively, was added in a Glomax 96 microplate luminometer (Promega, Madison, Wis.) and luminescence was immediately measured. Delay before and after injections were set to the default of 0.4 s and a 10 s integration time was used. All reagents used in this assay were from the dual luciferase reporter assay system (Promega, Madison, Wis.). Concurrently, an additional 96 well plate was seeded and treated under the exact same conditions to determine cell viability using resazurin assay. Luminescence results were normalized to cell viability.
On the technique in general: Reporter assays use an easily measured gene product as a stand-in for the process of interest.

In assay [3] the test system is RD-ES Ewing sarcoma cells (EWS-FLI1 Type 2). The assay can be described thus: 72 h GI50 assay in RD-ES. The note with it: read-out: RD-ES EWS-FLI1 Type 2 GI50; 72 h growth inhibition.
Assay [4] concerns ES-2 Ewing sarcoma cells (EWS-FLI1 Type 3). The assay can be described thus: 72 h GI50 assay in ES-2. The note with it: read-out: ES-2 EWS-FLI1 Type 3 GI50; 72 h growth inhibition.

SMILES strings stand for the structures. Entries after “also recorded” stand apart in the source; their conditions may differ.

For orientation: GI50 means the concentration giving 50% growth inhibition.

On to `COC(=O)C(Cc1c[nH]c2ccccc12)NC(=O)C(Cc1ccccc1)NC(=O)C(OC)C1Cc2cc3cc(OC4CC(OC5CC(O)C(O)C(C)O5)C(O)C(C)O4)c(C)c(O)c3c(O)c2C(=O)C1OC1CC(OC2CC(OC3CC(C)(O)C(O)C(C)O3)C(O)C(C)O2)C(O)C(C)O1` (stereo not drawn) [Analogue 60, MTMSA-Phe-Trp], for which the “Ratio of Median GI50 non-Ewing sarcoma:Ewing sarcoma (Selectivity Index)” value in assay [1] was 19.1. For the same molecule, the GI50 in assay [1] was determined as 52 nM; in the assay with PANC-1 cells, 574 nM; with HeLa cells, 557 nM; in assay [3] it was 50 nM; in assay [4], 78 nM. In assay [1], the “Selectivity Index ratio Analogues:MTM (1)” value is listed as 12.7. For the same molecule, in assay [2], the “TC-32 Ewing sarcoma EWS-FLI1 Type 1 GI50” value turned out to be 47 nM. Besides, the “GI50 ratio PC-3:TC-32” value in assay [2] amounted to 24.0. Also, the “NR0B1 mRNA expression” value in the assay on NR0B1 mRNA is reported as “decreased”. Further, the “CMV promoter driven luciferase signal” value is recorded as “no effect at all; also recorded: did not decrease” in the assay with CMV promoter and “Lack of effect” in the assay with CMV promoter (listed as MTMSA-Phe-Trp (60)).
As for `COC(=O)C(Cc1c[nH]c2ccccc12)NC(=O)C(Cc1c[nH]c2ccccc12)NC(=O)C(OC)C1Cc2cc3cc(OC4CC(OC5CC(O)C(O)C(C)O5)C(O)C(C)O4)c(C)c(O)c3c(O)c2C(=O)C1OC1CC(OC2CC(OC3CC(C)(O)C(O)C(C)O3)C(O)C(C)O2)C(O)C(C)O1` (stereo not drawn) [Analogue 61, MTMSA-Trp-Trp], the “Ratio of Median GI50 non-Ewing sarcoma:Ewing sarcoma (Selectivity Index)” value in assay [1] amounted to 15.6. The concentration for 50% growth inhibition (GI50) amounted to 55 nM in assay [1]; 640 nM with PANC-1 cells; 951 nM in the assay on HeLa cells; 57 nM in assay [3]; 123 nM in assay [4]. Also, the “Selectivity Index ratio Analogues:MTM (1)” value in assay [1] worked out at 10.4. Besides, in assay [2], the “TC-32 Ewing sarcoma EWS-FLI1 Type 1 GI50” value was determined as 41 nM. The “GI50 ratio PC-3:TC-32” value in assay [2] stood at 13.9. Also, the “NR0B1 mRNA expression” value in the assay on NR0B1 mRNA is “decreased”. For the same molecule, the “CMV promoter driven luciferase signal” value in the assay on CMV promoter was “no effect at all; also recorded: did not decrease”; in the assay with CMV promoter (listed as MTMSA-Trp-Trp (61)) it was “Lack of effect”.

(Values after patent US11224609B2, “Mithramycin derivatives having increased selectivity and anti-cancer activity” (University of Kentucky Research Foundation, priority 2017, dated 2022).)
